From the Biogen ADME set (Fang et al. 2023)
In brackets after ≈: the same amount, converted by molar mass.

Settings: for aqueous solubility: pH 6.8

Row | Compound | MDR1-MDCK efflux ratio | aqueous solubility [µg/mL] | intrinsic clearance, human liver microsomes [mL/min/kg] | intrinsic clearance, rat liver microsomes [mL/min/kg] | fraction unbound, human plasma | fraction unbound, rat plasma
1 | COC(=O)c1ccc(NS(=O)(=O)c2ccc3c(c2)n(C)c(=O)n3C)cc1 | 20.5 | 15.6 (≈ 41.6 µM) | – | – | – | –
2 | COc1cccc(S(=O)(=O)N2CCOC(c3c(C(N)=O)sc4ncccc34)C2)c1 (stereo not drawn) | 38.2 | – | – | – | – | –
3 | Cc1cccc(C(=O)NCC#Cc2ccccc2)n1 | 0.421 | 29.7 (≈ 119 µM) | 38.2 | 557 | – | –
4 | CCS(=O)(=O)Nc1ccc(Oc2ccc(F)cc2F)c(-c2cn(C)c(=O)c3[nH]ccc23)c1 | 51.2 | 16.9 (≈ 36.7 µM) | ≤ 4.74 | 14.9 | – | –
5 | O=C(CCNc1ncccn1)N1CCc2ccccc2C1 | 1.23 | 35.1 (≈ 124 µM) | 24.8 | 146 | – | –
6 | CCOc1ccc(-c2csc(N)n2)cc1 | 0.572 | 6.55 (≈ 29.7 µM) | 102 | 338 | – | –
7 | COc1cccc(O[C@H]2CCN(C(=O)c3cc(-c4ccc(F)cc4)on3)CC[C@@H]2O)c1 | 0.882 | – | 66.3 | 577 | – | –
8 | Nc1ncc(C(=O)NC2CN(C(=O)C3CC3)C2)c2ccc(-c3cccc(F)c3)nc12 | 18.1 | 7.6 (≈ 18.7 µM) | ≤ 4.74 | 29.5 | 0.042 | 0.0241
9 | CC1Cc2ccccc2N1C(=O)CN1CCC(n2c(=O)[nH]c3ccccc32)CC1 (stereo not drawn) | 29 | 54.8 (≈ 140 µM) | 61.3 | 1030 | – | –
10 | CCn1nnc2cc(C(=O)Nc3cccc(C#N)c3)ccc21 | – | 1 (≈ 3.43 µM) | – | – | – | –
11 | COc1cc2c(cc1OC)CN(CCc1ccc(NC(=O)c3cccc4c(O)c5cccc(OC)c5nc34)cc1)CC2 | – | – | – | – | 0.00062 | 0.00051
12 | O=C1N=C(N2CCCCN2)S/C1=C\c1ccc(F)cc1O | 1.69 | 0.9 (≈ 2.93 µM) | – | – | – | –
13 | COc1ccccc1N1CCN(CCNC(=O)c2ccc(F)cc2)CC1 | – | – | 22 | 356 | – | –
14 | Cn1cnnc1-c1cccc(NS(=O)(=O)c2ccc(N3CCCC3=O)cc2)c1 | 3.7 | 56.6 (≈ 142 µM) | ≤ 4.74 | 18 | – | –
15 | Cc1cc(SCc2ccc(Cl)nc2)nc2ccccc12 | – | – | 327 | 1380 | – | –
16 | Cc1nn(C)c2ncnc(N(C)Cc3cccc(Cl)c3)c12 | 0.569 | 22.5 (≈ 74.5 µM) | 28.3 | 652 | – | –
17 | Clc1ccc(Cc2nc(-c3cccnc3)no2)cc1 | 0.458 | 16.5 (≈ 60.7 µM) | 26.9 | 219 | – | –
18 | O=C1CCCN1c1ccc(CN2CCC(c3noc4cc(F)ccc34)CC2)cc1 | 0.963 | 58.6 (≈ 149 µM) | 26.7 | 109 | – | –
19 | O[C@@H]1C[C@@H](c2nc(-c3cccnc3)no2)N(CCCc2ccccc2)C1 | 1.19 | 45.6 (≈ 130 µM) | 108 | 1900 | – | –
20 | CN(C)c1cncc(-c2ccc(S(=O)(=O)N(C)C)cc2)n1 | 0.61 | – | 80.8 | 2430 | – | –

Row | Compound | MDR1-MDCK efflux ratio | aqueous solubility [µg/mL] | intrinsic clearance, human liver microsomes [mL/min/kg] | intrinsic clearance, rat liver microsomes [mL/min/kg] | fraction unbound, human plasma | fraction unbound, rat plasma
21 | CC(C)(C)OC(=O)N1CCNC(=O)C1 | – | 34.3 (≈ 171 µM) | – | – | – | –
22 | O=c1c2cnccc2ncn1Cc1ccc2c(c1)CCCO2 | 0.724 | – | 45.9 | 281 | – | –
23 | CCN(C/C=C\c1ccc(C2CCCCC2)c(Cl)c1)C1CCCCC1 | – | 6.6 (≈ 18.3 µM) | 47.5 | 591 | 0.0014 | 0.00541
24 | Cc1ccc(-n2cc(C)cn2)c(NC(=O)CN(C)C)c1 | 0.559 | – | 120 | 436 | – | –
25 | COc1ccc2cc(C(=O)NCc3nnc4n3CCCCC4)ccc2c1 | 35.2 | – | 13.8 | 655 | – | –
26 | COc1cccc(OCCCN)c1-c1cc(Nc2cnc(C#N)cn2)n[nH]1 | 17.5 | 39.1 (≈ 107 µM) | ≤ 4.74 | 512 | – | –
27 | c1ccc(COc2ccc(CNCC3CCNCC3)cc2)cc1 | 4.9 | 25.2 (≈ 81.2 µM) | ≤ 4.74 | 21.1 | – | –
28 | O=C(NCc1nnc2n1-c1ccccc1CC2)c1ccc2ccccc2c1 | 6.88 | 34.3 (≈ 96.9 µM) | 28.6 | 517 | – | –
29 | COc1ccc(CCn2c(C)c3c(=O)n(-c4nc5ccccc5s4)[nH]c3cc2=O)cc1 | – | 22.5 (≈ 52.1 µM) | 53.7 | 892 | – | –
30 | Cn1cc(CN2CCCC(c3ccnc(Nc4cnccn4)c3)C2)cn1 (stereo not drawn) | 6.36 | – | 7.74 | 179 | – | –
31 | CN(Cc1ccccn1)c1nc2ccccc2o1 | 0.718 | 37.8 (≈ 158 µM) | 15 | 361 | – | –
32 | COc1cccc(CNC(=O)C2(C#N)CCOCC2)c1 | – | – | ≤ 4.74 | 75.9 | – | –
33 | Cc1nnc(-c2ccc(N3CCC(Oc4ccccc4C(F)(F)F)CC3)nn2)s1 | 0.485 | – | 14.4 | – | 0.00124 | –
34 | CN(CCc1ccncc1)c1ncccc1C#N | 0.743 | – | 44.3 | 552 | – | –
35 | CCNC(=O)C1CN(c2cccc(C#N)n2)C1 | 2.07 | 42.9 (≈ 186 µM) | ≤ 4.74 | ≤ 10.7 | – | –
36 | c1cc(Nc2cc(C3CC3)[nH]n2)nc(Nc2ccc3nc[nH]c3c2)n1 | 2.39 | – | 15.1 | 71.4 | – | –
37 | O=C1CCC(=O)N1Cc1nc(C23CC4CC(CC(C4)C2)C3)cs1 | – | 42.8 (≈ 129 µM) | 105 | 1400 | – | –
38 | O=C(CN1CCC(n2c(=O)[nH]c3ccccc32)CC1)N1CCc2ccccc21 | 51 | 21.9 (≈ 58 µM) | 10.4 | 393 | – | –
39 | CCC1=Nc2c(cnn2-c2cccc(Cl)c2)C2=NCCCN12 | – | 53.2 (≈ 170 µM) | – | – | – | –
40 | O=C(NCC1(c2ccccc2)CC1)c1cccnc1 | 0.757 | 41.2 (≈ 163 µM) | ≤ 4.74 | 231 | – | –

Row | Compound | MDR1-MDCK efflux ratio | aqueous solubility [µg/mL] | intrinsic clearance, human liver microsomes [mL/min/kg] | intrinsic clearance, rat liver microsomes [mL/min/kg] | fraction unbound, human plasma | fraction unbound, rat plasma
41 | c1cnc(-n2cccn2)c(CNC2CCCC2)c1 | 0.951 | 30.4 (≈ 125 µM) | ≤ 4.74 | 40.3 | – | –
42 | O=C(C1CCCN(Cc2cc3c(cc2O)OCO3)C1)N1CCOCC1 (stereo not drawn) | 1.94 | 55.8 (≈ 160 µM) | 5.4 | 52.6 | – | –
43 | CCn1c(C)nc2cc(NC(=O)c3ccc(=O)n(CC(=O)N4CCCCC4)c3)ccc21 | 4.08 | 78.4 (≈ 186 µM) | ≤ 4.74 | 54.8 | – | –
44 | O=c1cc(CN2CCCCc3ccccc32)[nH]c2ccnn12 | 6.78 | 14.3 (≈ 48.5 µM) | 34.2 | 481 | – | –
45 | N#Cc1cccc(NCc2ccc(-c3cccnc3)o2)c1 | – | – | 91.5 | 416 | – | –
46 | COc1ccc(-c2nc(CC(N)=O)sc2C)cc1.Cl | 0.246 | 30.3 | 166 | 111 | – | –
47 | N#Cc1cc(-c2ccccc2)sc1N | – | 3 (≈ 15 µM) | – | – | – | –
48 | CN1CCCN(C(=O)Nc2cccc(OCC(F)F)n2)CC1 | – | – | ≤ 4.74 | 191 | – | –
49 | COc1ccc2nc3c(cc2c1)CNCCO3 | 0.504 | – | 18.1 | 82.4 | – | –
50 | CC(=O)N1CCc2c(sc(NC(=O)C(C)C)c2-c2nc3ccccc3s2)C1 | – | – | 24.9 | 228 | – | –
51 | Cc1noc(C2CCN(CCc3ccccc3)CC2)n1 | 0.492 | 63.8 (≈ 235 µM) | 18 | 448 | – | –
52 | COc1cc2nc(/C=C/c3cocn3)sc2cc1OC | 0.504 | 12.4 (≈ 42.9 µM) | 11.4 | 74.5 | – | –
53 | Fc1ccccc1-c1noc(-c2ccc(NCCc3cnccn3)nc2)n1 | 0.142 | 5.51 (≈ 15.2 µM) | 10.2 | 749 | – | –
54 | CCN(Cc1ccccc1)C(=O)c1ccc(O)cc1O | 0.83 | 46.7 (≈ 172 µM) | ≤ 4.74 | 726 | – | –
55 | Cc1cc(Nc2ccc(F)cn2)cc(C2CCN(C(=O)CCc3cccc(Cl)c3)C2)n1 (stereo not drawn) | 9.81 | – | 562 | 2270 | – | –
56 | O=C(NC1CCCCCC1)c1ccc(-c2cnco2)cc1 | 0.516 | 9.2 (≈ 32.4 µM) | 14.9 | 90.4 | – | –
57 | Cc1c(C(=O)NC2CCN(CC3CCCCC3)CC2)cnn1C | 6.82 | 48.9 (≈ 154 µM) | ≤ 4.74 | ≤ 10.7 | – | –
58 | CC(=O)N1CCN([C@H]2CCN(C(=O)c3cc4cc(Cl)ccc4o3)CC[C@@H]2O)CC1 | 37.8 | – | 8.04 | 96.9 | – | –
